# Reference: patent US9868767B2, “Chemical synthesis and screening of bicyclic peptide libraries” (OHIO STATE INNOVATION FOUNDATION, priority 2013, dated 2018)
# Entries after “also recorded” stand apart in the source; their conditions may differ. Read-outs that look alike come from different tables or passages of the source. Bridges are numbered along the chain shown (N, C = ends). Primed or numbered codes have the meaning given here. Where no end group is shown, it is not given here. [ ]: non-standard residue; d: D form. trimesoyl″ = trimesic acid scaffold joined by three amide bonds; Nal = naphthylalanine (isomer not specified); pY = N[C@@H](Cc1ccc(OP(=O)(O)O)cc1)C(=O)O; Phg = N[C@H](C(=O)O)c1ccccc1; Pra = C#CC[C@H](N)C(=O)O; dNal = D-naphthylalanine; Dap = NC[C@H](N)C(=O)O
# Columns and labels:
# Ras-Raf interaction = Ras-Raf interaction (Homo sapiens, UniProt P01116); assay: Qualitative on-bead assay of Ras-Raf interaction; format: binding; settings: 10 μM peptide, Texas red-labeled K-Ras, immobilized GST-Raf
# K-Ras [1] = target: K-Ras (Homo sapiens, UniProt P01116); assay: FA-based competition assay for binding to K-Ras
# H1299 lung cancer cells = assay: MTT proliferation assay; format: cell-based
# Description: One hundred μL of H1299 cells (0.5×10^5 cells/mL) were placed in each well of a 96-well culture plate and allowed to grow overnight. […] Ten μL of a MTT stock solution (5 mg/ml) was added into each well. The plate was incubated at 37° C. for 4 h. Then 100 μL of SDS-HCl solubilizing buffer was added into each well, and the resulting solution was mixed thoroughly. The plate was incubated at 37° C. overnight. The absorbance of the formazan product was measured at 570 nm using a Molecular Devices Spectramax M5 plate reader. Cells treated with DMSO were used as control.
# K-Ras [2] = target: T1, K-Ras (Homo sapiens, UniProt P01116, G12V); assay: Competition between labeled peptide 2 and DCAI for K-Ras; format: binding
# T1 construct: GST; made in house
# WEHI-13VAR fibroblasts [3] = system: WEHI-13VAR fibroblasts
# human TNFα = target: T2, human TNFα (Homo sapiens, UniProt P01375); assay: Fluorescence anisotropy (FA) binding to TNFα; settings: resynthesized, FITC-labeled, HPLC-purified peptide
# T2 construct: extracellular domain of human TNFα (aa 77-233); made in house; host or cells: E. coli BL21(DE3)
# TNFα-TNFR1 interaction = target: T3, TNFα-TNFR1 interaction (Homo sapiens, UniProt P01375); assay: TNFα-TNFR1 interaction ELISA (HRP-TNFR1, immobilized TNFα); settings: read-out: IC50, inhibition of TNF-alpha binding to its cognate receptor
# T3 construct: extracellular domain of human TNFα (aa 77-233); host or cells: E. coli BL21(DE3) (TNFα)
# Description: Recombinant TNFR1 was purchased from R&D Systems. EZ-Link Plus activated peroxidase, an amine-reactive form of HRP was purchased from Thermo Scientific. TNFR1 was labeled with HRP by combining 50 μL of TNFR1 (1.0 μM) and 4 μL of HRP […], of Na2CO3 buffer (0.2 M Na2CO3, 0.15 M NaCl, pH 9.0) for 1 h. The resulting TNFR1-HRP conjugate was treated with NaCNBH3 to reduce the resulting Schiff base and quenched with 20 μl of ethanolamine. A Nunc 96F Maxisorp plate was coated overnight with 100 μL of […] Neutravidin (in 50 mM Na2CO3, pH 9.0) at 4° C. The solution was removed and each well was washed with 100 μL of the blocking buffer containing 3% BSA. […] The absorbance at 450 nm was measured and plotted against the peptide concentration and the IC50 value was obtained by curve fitting.
# TNFα signaling begins with the binding of the TNFα trimer to the extracellular domain of TNFR1, triggering the release of the inhibitory protein, silencer of death domains (SODD), from the intracellular domain of TNFR1 (Chen, G and Goeddel, D V. Science, 2002, 296, 1634-1635). […] After washing, the amount of HRP-TNFR1 bound to each well was quantitated by ELISA using 3,3′,5,5′-tetramethylbenzidine (TMB) as HRP substrate, which was converted into 3,3′,5,5′-tetramethylbenzidine diimine by HRP resulting in absorbance at 450 nm (Martin, T L et al. J. Histochem. Cytochem., 1984, 32, 793).
# H358 lung cancer cells = assay: MTT assay, growth of H358 cells; format: cell-based
# Description: FIG. 23a, b show on-bead assay of inhibition of Ras-Raf interaction by cyclorasin B3.
# Cyclorasin B2-B4 were tested for inhibition of cell proliferation by the MTT assay.
# WEHI-13VAR fibroblasts [4] = settings: in the presence of actinomycin-D; Khabar et al.; cited from earlier work
# K-Ras [5] = target: T1, K-Ras; assay: FA binding to K-Ras (Example 4 DCAI-bearing bicyclic peptides); settings: FAM- or FITC-labeled peptide; NB = no binding
# Description: To confirm the screening results, four hit sequences (peptides A2, A8, B5 and B8; hereafter named as peptides 1-4) were selected for resynthesis and tested for binding to K-Ras in solution by fluorescence anisotropy. The peptides were synthesized on Rink Amide resin, cleaved, deprotected, and purified by reversed-phase HPLC. Each peptide contains a Lys outside of the bicyclic rings to serve as the point of labeling with an amine-reactive fluorescent dye (FAM-NHS or FITC).
# Ras-GTP = Ras-GTP (Homo sapiens, UniProt P01116); assay: FA binding to K-Ras loaded with GTP
# [6] = target: GST-FKBP12 fusion protein (Homo sapiens, UniProt P62942); assay: FA binding to GST-FKBP12
molecule,measurement,setting,value
Orn-Arg-nal-Arg-Fpa-Lys-phe-glu-Gly-Dap [Hit 105B],effect on Ras-Raf interaction (bead staining),Ras-Raf interaction,completely abolished
same,inhibition of binding of (FITC-labeled) cyclorasin B4 to K-Ras,K-Ras [1],inhibited the binding of FITC-labeled B4 to K-Ras
bicyclo(Ala-d-Leu-Phe-Arg-d-Asn-Pra-Ile-Asp-K-FNalR4-Dap)-K [Peptide 41],EC50,"H1299 lung cancer cells; 24-hour treatment, peptide 0-40 μM, read-out: ED50, anti-proliferative activity",~9 µM
same,EC50,"H1299 lung cancer cells; 72 h, read-out: ED50, cell growth inhibition",~7 µM
"Cc1[nH]c2cc(Cl)cc(Cl)c2c1CCN [DCAI, 4,6-dichloro-2-methyl-3-aminoethyl-indole]",IC50,K-Ras [2],1400 µM
bicyclo(Phg-Tyr-D-Ala-Lys-Tyr-D-Phe-Gly-D-Lys-His-Dap) [Necrostatin C1],LD50 of TNFα in the presence of 50 μM Necrostatin C1,WEHI-13VAR fibroblasts [3]; TNFα 0-250 ng/mL,1.8 ng/mL
same,Kd,human TNFα,0.45 µM
same,IC50,TNFα-TNFR1 interaction,3.1 µM
"Bicyclo(Arg-Arg-Arg-Arg-Nal-Phe-Dap-S er-D-Val-Pro-pTyr-His-Dap) (RRRR[Nal]F[Dap]S[dV]P[pY]H[Dap]; linker N-7-13 via trimesic acid (inferred)) [control bicyclic peptide, control peptide arbitrarily selected from another library (unrelated to TNFα), reference compound]",protection of cells from TNFα-induced cell death,"WEHI-13VAR fibroblasts [3]; TNFα 0.04 ng/mL, peptide 0-25 μM, actinomycin D",no protective effect
same,KD for TNFα,human TNFα,no detectable binding
CCCCCCCC/C=C\CCCCCCCC(=O)NCCCC[C@H](NC(=O)[C@@H]1CNC(=O)c2cc3cc(c2)C(=O)NC(Cc2ccc4ccccc4c2)C(=O)N[C@@H](CO)C(=O)N[C@@H](CCC(N)=O)C(=O)NC(Cc2ccc4ccccc4c2)C(=O)N[C@@H](c2ccccc2)C(=O)N[C@@H](CCCCNC3=O)C(=O)N[C@H](Cc2ccccc2)C(=O)N[C@@H](CCCNC(=N)N)C(=O)N[C@H](C(C)C)C(=O)NC(CCCNC(=N)N)C(=O)N1)C(N)=O (some centres unmarked) [oleiylated cyclorasin B3],anti-proliferative activity against H358 lung cancer cells,H358 lung cancer cells,modest anti-proliferative activity
"TNFα: Tumor necrosis factor-alpha, cytokine used to induce cell death",LD50 of TNFα in the absence of TNFα inhibitor,WEHI-13VAR fibroblasts [3]; TNFα 0-250 ng/mL,0.46 ng/mL
same,LD50 range of TNFα,WEHI-13VAR fibroblasts [4],0.005 to 0.065 ng/mL
bicyclo(Arg-Asp-Phg-Pra-d-Asn-K-FNalR4-Dap)-K (RD[Phg][Pra][dN]KF[dNal]RRRR[Dap]K-NH2; linker N-6-13 via trimesoyl″ (inferred); not fully specified; printed as bicyclo(Arg-Asp-Phg-Pra-d-Asn-K-FNalR4-Dap)-K) [Peptide 1],KD for K-Ras,K-Ras [5],does not bind
nal-Ser-Gln-nal-Phg-Lys-phe-Arg-val-Arg-Dap [Hit 82],effect on Ras-Raf interaction (bead staining),Ras-Raf interaction; listed as cyclorasin B3,completely abolished; also recorded: abolished Ras-Raf interaction
same,fold higher affinity for Ras-GTP and Ras-GPPNP than Ras-GDP,Ras-GTP,approximately 8 fold
same,binding to GST-FKBP12,[6],very weakly
